{"source": "patent EP2497475A1", "about": "“Treatment of laminitis with platelet aggregation inhibitors” (priority 2011, dated 2012)", "test_system": "laminitis", "assay_type": "in vivo, horse", "note": "Where two headings read alike, the source gives them in different places."}
{"smiles": "CC(=O)Oc1cc2c(s1)CCN(C(C(=O)C1CC1)c1ccccc1F)C2", "note": "(stereo not drawn) [Prasugrel]", "values": [{"measurement": "Therapy progress", "setting": "Example 1: 8 year old Shetty-gelding, acute attack, initial 20 mg Prasugrel + 1000 mg acetylsalicylic acid per 60 kg, then 10 mg + 500 mg per 60 kg twice a day, change in feeding, day 2", "value": "distinct pulsation in all 4 legs; the horse is more interested in its surrounding"}, {"measurement": "Therapy progress", "setting": "Example 1: Shetty-gelding, Prasugrel in combination with acetylsalicylic acid, day 3", "value": "pulsation in the front legs less, in the back legs the same; horse comes when it is called"}, {"measurement": "1. Follow-up examination", "setting": "Example 1: Shetty-gelding, Prasugrel in combination with acetylsalicylic acid, day 4", "value": "day 4: pulsation in all 4 legs; horse walks with medium grade turning pain."}, {"measurement": "2. Follow-up examination: signs of laminitis", "setting": "Example 1: Shetty-gelding, Prasugrel in combination with acetylsalicylic acid, day 6", "value": "no signs of laminitis"}, {"measurement": "2. Follow-up examination: hoof ulcers", "setting": "Example 1: Shetty-gelding, Prasugrel in combination with acetylsalicylic acid, day 8", "value": "no hoof ulcers observable"}, {"measurement": "2. Follow-up examination: recurrence of laminitis", "setting": "Example 1: Shetty-gelding, after stop of treatment on day 10, change of feeding kept", "value": "no more laminitis occurred"}, {"measurement": "Therapy progress", "setting": "Example 2: 8 year old Shetty-mare, per 60 kg 10 mg Prasugrel + 500 mg acetylsalicylic acid twice a day, change in feeding, from day 3 on", "value": "light amelioration"}, {"measurement": "Therapy progress: pulsation", "setting": "Example 2: Shetty-mare, Prasugrel in combination with acetylsalicylic acid, from day 7 on", "value": "no pulsation anymore sensible"}, {"measurement": "Therapy progress: pulsation", "setting": "Example 2: Shetty-mare, Prasugrel in combination with acetylsalicylic acid, until day 5", "value": "pulsation clearly sensible"}, {"measurement": "Follow-up examination", "setting": "Example 2: Shetty-mare, 1 month later (treatment stopped on day 14)", "value": "no pulsation; attitude without pathological findings"}, {"measurement": "Therapy progress", "setting": "Example 3: 12 year old Pony-gelding, 10 mg Prasugrel + 500 mg acetylsalicylic acid per 60 kg twice a day, change in feeding, from day 2 on", "value": "light amelioration"}, {"measurement": "Therapy progress: movement", "setting": "Example 3: Pony-gelding, Prasugrel in combination with acetylsalicylic acid, day 6", "value": "pony walks still restrained"}, {"measurement": "Therapy progress: movement", "setting": "Example 3: Pony-gelding, Prasugrel in combination with acetylsalicylic acid, day 10", "value": "unlimited movement"}, {"measurement": "Therapy progress: pulsation", "setting": "Example 3: Pony-gelding, Prasugrel in combination with acetylsalicylic acid, from day 4 on", "value": "no pulsation anymore sensible"}, {"measurement": "Therapy progress", "setting": "Example 4: 8 year old Shetty-gelding, acute attack, 10 mg Prasugrel + 500 mg acetylsalicylic acid per 60 kg twice a day, change in feeding, day 3", "value": "pony standing in bran, but still heavy pain on all 4 legs"}, {"measurement": "Therapy progress", "setting": "Example 4: Shetty-gelding, Prasugrel in combination with acetylsalicylic acid, day 5", "value": "clear amelioration of its attitude; less pulsation"}, {"measurement": "Therapy progress: pulsation", "setting": "Example 4: Shetty-gelding, Prasugrel in combination with acetylsalicylic acid, from day 10 on", "value": "no pulsation sensible anymore"}, {"measurement": "Follow-up examination: outcome of pregnancy", "setting": "in vivo", "value": "normal birth of a healthy foal"}]}
